{"source": "patent US20030212136A1", "about": "(priority 2003, published 2003)", "key": {"physchem": {"experiment": "physchem", "settings": "water"}, "[1]": {"settings": "gastric pH range of 1-2, aqueous solution; cited from earlier work"}, "GP3A transgenic mice": {"tested_on": "GP3A transgenic mice", "settings": "creatine supplementation; cited from earlier work"}, "[2]": {"tested_on": "patients with various muscular dystrophies", "settings": "supplemented for 8 weeks; cited from earlier work"}, "brain dopamine": {"tested_on": "brain dopamine", "settings": "rats, diet supplemented for 2 weeks; 70% depletion in nonsupplemented rodents; cited from earlier work"}}, "note": "Read-outs that look alike come from different tables or passages of the source.", "data": [{"smiles": "CN(CC(=O)OCc1ccccc1)C(=N)N", "note": "[Creatine Benzyl Ester, creatine benzyl ester]", "values": [{"measurement": "solubility thermodynamic", "setting": "physchem", "result": 89.3, "unit": "mg/mL"}]}, {"smiles": "CN(CC(=O)O)C(=N)N", "note": "[Creatine]", "values": [{"measurement": "partition coefficient", "setting": "Partition coefficient", "result": 0.015}, {"measurement": "creatinine/creatine ratio at equilibrium", "setting": "[1]", "result": "greater than or equal to 30"}, {"measurement": "increase of life-span", "setting": "GP3A transgenic mice", "result": "up to 26 days"}, {"measurement": "improvement in neuromuscular symptom score", "setting": "[2]", "result": 10, "unit": "%"}, {"measurement": "increase in strength", "setting": "[2]", "result": 3, "unit": "%"}, {"measurement": "reduction in brain dopamine", "setting": "brain dopamine", "result": 10, "unit": "%"}]}, {"smiles": "CCOC(=O)CN(C)C(=N)N", "note": "[Creatine Ethyl Ester, creatine ethyl ester]", "values": [{"measurement": "solubility thermodynamic", "setting": "physchem", "result": 206, "unit": "mg/mL"}]}, {"smiles": "CN(CC(=O)O)C(=N)N.O", "note": "[creatine monohydrate]", "values": [{"measurement": "partition coefficient", "setting": "Partition coefficient; studies in the laboratory", "result": "0.015±0.007"}]}]}
